Experiments:
[1] = test system: Pseudoperonospora cubensis; conditions: 9 grams per hectare; detached cucumber leaf; five days
Sphaerotheca fulginea = conditions: 150 grams per hectare; cucumber cultivar Bush Champion; scored seven days after inoculation
[2] = test system: Colletotrichum lagenarium; conditions: 150 grams per hectare; cucumber cultivar Bush Champion
[3] = test system: Puccinia recondita (f sp. tritici); conditions: 150 grams per hectare; wheat cultivar Fielder; evaluated after 12 days

Structure (SMILES)	percent disease control, cucumber downy mildew [1] [%]	percent disease control, cucumber powdery mildew (Sphaerotheca fulginea) [%]	percent disease control, cucumber anthracnose [2] [%]	percent disease control, wheat leaf rust [3] [%]
CNC(=O)C(=NOC)c1ccccc1CON=C(C)C1CC1c1c(F)cccc1F (stereo not drawn) [Compound 9.7A, N-Methyl 2-[2-((trans-1-(2-(2′,6′-difluorophenyl)cyclopropyl)ethylidene)aminooxymethyl)phenyl]-2-methoxyiminoacetamide]	100	100	100	100
CNC(=O)C(=NOC)c1ccccc1CON=C(C)C1CC1(C)c1ccccc1 (stereo not drawn) [Compound 3.11, (E,E and Z,E)-N-Methyl 2-[2-((trans-1-(2-phenyl-2-methyl-cyclopropyl)ethylidene)aminooxymethyl)phenyl]-2-methoxyiminoacetamide]	–	100	100	100
CNC(=O)C(=NOC)c1ccccc1CON=C(C)C1CC1c1c(Cl)cccc1Cl (stereo not drawn) [Compound 9.1, N-Methyl 2-[2-((trans-1-(2-(2′,6′-dichlorophenyl)cyclopropyl)ethylidene)aminooxymethyl)phenyl]-2-methoxyiminoacetamide]	–	100	100	100
CON=C(C(=O)OC)c1ccccc1CON=C(C)C1CC1c1c(Cl)cccc1Cl (stereo not drawn) [Compound 8.1, Methyl 2-[2-((trans-1-(2-(2′,6′-dichlorophenyl)cyclopropyl)ethylidene)aminooxymethyl)phenyl]-2-methoxyiminoacetate]	–	100	–	–
CNC(=O)/C(=N/OC)c1ccccc1CO/N=C(\C)C1CC1(C)c1ccc(Cl)cc1 (centres unmarked) [Compound 3.14A, (E,E)-N-Methyl 2-[2-((1-(2-(4′-chlorophenyl)-2-methylcyclopropyl)ethylidene)aminooxymethyl)phenyl]-2-methoxyiminoacetamide]	–	100	100	100

— patent US6348627B1 (priority 1999, dated 2002)
